Measured values: US20230117034A1, “PYRAZOLOTRIAZINES” (Bayer Aktiengesellschaft, priority 2019, published 2023)
pIC50: −log10 of the molar value.

Assays:
CDK9/CycT1 = biological target: T1, CDK9/CycT1 (Homo sapiens, UniProt P50750); test: CDK9/CycT1 high ATP kinase assay (TR-FRET, 2 mM ATP); type: biochemical; settings: 2 mM ATP (high ATP); median; read-out: CDK9/CyclinT1, 2 mM ATP (high ATP), IC50 (median)
T1 construct: Recombinant full-length His-tagged human CDK9 and CycT1; purchased Life Technologies PV4131; host or cells: insect cells
T1 sequence (P50750 whole entry): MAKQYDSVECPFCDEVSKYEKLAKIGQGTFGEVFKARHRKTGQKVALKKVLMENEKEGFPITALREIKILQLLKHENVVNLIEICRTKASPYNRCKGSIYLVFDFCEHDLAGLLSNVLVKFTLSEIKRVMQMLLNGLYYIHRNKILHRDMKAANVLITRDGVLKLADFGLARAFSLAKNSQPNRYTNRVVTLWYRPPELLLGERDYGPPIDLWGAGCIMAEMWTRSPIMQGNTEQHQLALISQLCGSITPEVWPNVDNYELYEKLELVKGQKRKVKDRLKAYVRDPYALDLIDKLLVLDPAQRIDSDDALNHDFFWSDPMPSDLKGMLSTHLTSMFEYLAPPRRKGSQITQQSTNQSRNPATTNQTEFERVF
T1 sequence (O60563 whole entry partner): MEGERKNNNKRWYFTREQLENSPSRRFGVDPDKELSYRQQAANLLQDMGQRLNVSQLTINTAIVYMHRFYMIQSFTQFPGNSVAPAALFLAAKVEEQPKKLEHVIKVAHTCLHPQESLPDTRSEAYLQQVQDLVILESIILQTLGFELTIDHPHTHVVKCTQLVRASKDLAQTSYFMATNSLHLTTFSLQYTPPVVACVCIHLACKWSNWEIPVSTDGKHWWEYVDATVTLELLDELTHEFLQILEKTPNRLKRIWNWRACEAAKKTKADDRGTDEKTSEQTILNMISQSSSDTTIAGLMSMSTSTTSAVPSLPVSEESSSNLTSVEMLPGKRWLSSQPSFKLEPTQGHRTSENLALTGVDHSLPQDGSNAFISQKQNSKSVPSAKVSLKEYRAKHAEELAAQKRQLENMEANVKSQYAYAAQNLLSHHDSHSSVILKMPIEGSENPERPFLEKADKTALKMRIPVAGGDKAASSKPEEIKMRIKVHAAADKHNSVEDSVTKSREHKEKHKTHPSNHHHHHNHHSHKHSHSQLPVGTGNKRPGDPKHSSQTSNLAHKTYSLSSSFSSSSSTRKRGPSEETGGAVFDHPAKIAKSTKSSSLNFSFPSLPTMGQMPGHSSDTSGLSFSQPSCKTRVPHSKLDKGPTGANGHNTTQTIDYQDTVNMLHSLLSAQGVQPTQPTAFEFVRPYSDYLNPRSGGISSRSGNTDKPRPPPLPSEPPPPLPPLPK
Procedure, shortened: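 Full-length His-tagged human CDK9/CycT1 (insect cell, ~0.5 μg/mL) preincubated 15 min at 22 °C with compound in Tris pH 8.0, MgCl2, DTT buffer before reaction with biotinylated peptide substrate at high ATP (2 mM).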

[1] = tested on: CAL-120, human breast adenocarcinoma cells; test: Proliferation assay CAL-120 (crystal violet, 4 days); type: cell-based; settings: Homo sapiens, CAL-120, 96 h, CAL-120 cells, median, read-out: Prolif-CAL-120, IC50-[mol/l] (median)
Procedure, shortened: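 CAL-120 or MDA-MB-231 cells grown 24 h, then exposed 4 days to compound (0.01–10 micromol/L, 0.1% DMSO). Crystal violet staining, absorbance at 595 nm, normalised to a zero-point plate (0%) and untreated cells (100%); IC50 by 4-parameter fit.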

[2] = biological target: T2, CDK12 (nuclear staining in CAL-120 cells) (Homo sapiens, UniProt Q9NYV4); test: CDK12 nuclear protein level: immunofluorescence/high content analysis (CAL-120); type: cell-based; settings: for DC50: CAL-120 cells, 24 h, immunofluorescence, 50% reduction of nuclear CDK12 staining intensity, median, read-out: CDK12 degradation IF, DC50- [mol/l] (median); for (IC50 CDK12 high ATP) to (Degradation DC50 CDK12) ratio: ratio of IC50 CDK12 high ATP kinase assay to DC50 CDK12 degradation (IF, CAL-120)
T2 construct: endogenous in cells; host or cells: CAL-120 human breast cancer cells (DSMZ ACC 459)
T2 sequence (Q9NYV4 whole entry): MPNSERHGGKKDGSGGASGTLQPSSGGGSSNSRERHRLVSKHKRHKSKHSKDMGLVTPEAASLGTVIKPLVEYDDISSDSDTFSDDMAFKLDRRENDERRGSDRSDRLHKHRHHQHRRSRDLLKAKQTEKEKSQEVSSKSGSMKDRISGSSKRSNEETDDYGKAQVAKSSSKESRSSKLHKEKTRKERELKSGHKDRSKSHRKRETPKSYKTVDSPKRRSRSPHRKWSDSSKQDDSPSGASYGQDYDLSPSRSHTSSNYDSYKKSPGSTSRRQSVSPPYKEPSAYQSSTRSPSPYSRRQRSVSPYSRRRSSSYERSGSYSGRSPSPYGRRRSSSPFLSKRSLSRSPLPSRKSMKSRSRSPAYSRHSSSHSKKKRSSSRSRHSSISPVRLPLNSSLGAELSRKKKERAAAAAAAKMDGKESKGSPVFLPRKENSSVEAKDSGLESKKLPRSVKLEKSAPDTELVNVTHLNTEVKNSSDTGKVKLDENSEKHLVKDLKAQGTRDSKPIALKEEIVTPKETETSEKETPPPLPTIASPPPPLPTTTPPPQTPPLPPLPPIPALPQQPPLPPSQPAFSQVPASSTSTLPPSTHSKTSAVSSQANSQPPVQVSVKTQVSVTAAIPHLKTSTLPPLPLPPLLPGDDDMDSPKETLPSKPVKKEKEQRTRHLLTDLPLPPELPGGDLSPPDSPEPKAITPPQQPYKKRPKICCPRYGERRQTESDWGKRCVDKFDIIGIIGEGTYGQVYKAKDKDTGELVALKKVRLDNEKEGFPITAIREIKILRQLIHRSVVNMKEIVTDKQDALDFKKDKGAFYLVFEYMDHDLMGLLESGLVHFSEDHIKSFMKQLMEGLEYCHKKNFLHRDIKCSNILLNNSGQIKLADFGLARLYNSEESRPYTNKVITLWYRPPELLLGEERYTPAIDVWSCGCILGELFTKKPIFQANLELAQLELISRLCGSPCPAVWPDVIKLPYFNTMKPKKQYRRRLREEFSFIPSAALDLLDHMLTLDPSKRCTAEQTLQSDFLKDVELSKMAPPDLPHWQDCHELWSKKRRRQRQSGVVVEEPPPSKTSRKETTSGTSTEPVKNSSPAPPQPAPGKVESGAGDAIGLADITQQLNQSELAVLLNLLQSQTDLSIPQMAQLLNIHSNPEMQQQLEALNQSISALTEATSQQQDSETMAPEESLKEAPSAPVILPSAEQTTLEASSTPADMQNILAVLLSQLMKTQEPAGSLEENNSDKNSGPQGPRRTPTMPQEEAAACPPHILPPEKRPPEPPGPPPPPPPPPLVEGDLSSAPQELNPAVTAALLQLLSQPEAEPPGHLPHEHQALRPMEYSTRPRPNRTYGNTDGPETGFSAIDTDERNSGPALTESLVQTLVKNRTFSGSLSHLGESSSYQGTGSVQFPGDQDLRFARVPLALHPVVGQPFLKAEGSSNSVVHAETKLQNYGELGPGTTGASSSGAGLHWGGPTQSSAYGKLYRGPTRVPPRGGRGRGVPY
T2 sequence (O75909 whole entry partner): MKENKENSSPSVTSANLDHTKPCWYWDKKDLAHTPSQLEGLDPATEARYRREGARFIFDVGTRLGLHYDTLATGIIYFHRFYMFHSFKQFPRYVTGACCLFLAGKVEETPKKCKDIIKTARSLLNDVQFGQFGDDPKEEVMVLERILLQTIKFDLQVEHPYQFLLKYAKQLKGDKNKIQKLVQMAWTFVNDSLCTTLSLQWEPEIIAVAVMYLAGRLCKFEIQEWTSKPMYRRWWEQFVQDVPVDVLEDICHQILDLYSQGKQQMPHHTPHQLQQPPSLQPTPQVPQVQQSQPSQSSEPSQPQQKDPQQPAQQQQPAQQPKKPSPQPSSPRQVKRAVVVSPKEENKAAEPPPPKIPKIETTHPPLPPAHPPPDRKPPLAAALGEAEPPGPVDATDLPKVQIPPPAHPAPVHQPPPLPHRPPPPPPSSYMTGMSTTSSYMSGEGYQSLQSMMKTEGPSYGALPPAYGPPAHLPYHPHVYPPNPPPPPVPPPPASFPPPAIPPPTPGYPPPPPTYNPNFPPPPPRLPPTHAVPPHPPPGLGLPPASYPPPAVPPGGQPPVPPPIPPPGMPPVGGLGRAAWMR
Procedure, shortened: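 CAL-120 cells were treated with compound for 24 h at 37 °C, fixed with PFA and immunostained for CDK12. Nuclear CDK12 intensity was quantified by automated image analysis and normalized to DMSO and control. DC50 is the concentration giving 50% reduction of nuclear staining.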

[3] = biological target: T3, CYCLIN K (nuclear staining in CAL-120 cells) (Homo sapiens, UniProt O75909); test: CYCLIN K nuclear protein level: immunofluorescence high content analysis (CAL-120); type: cell-based; settings: 24 h, 50% reduction of nuclear CCNK staining intensity, median, read-out: CYCLIN K degradation IF, DC50-[mol/l] (median)
T3 construct: endogenous in cells; host or cells: CAL-120 human breast cancer cells (DSMZ ACC 459)
T3 sequence (O75909 whole entry): as the sequence (O75909 whole entry partner) above
T3 sequence (Q9NYV4 whole entry partner): as the sequence (Q9NYV4 whole entry) above
Procedure, shortened: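 CAL-120 breast cancer cells treated in dose-response for 24 h at 37 °C, PFA-fixed and immunostained for cyclin K with Hoechst counterstain. Confocal imaging quantified nuclear intensity; DC50 is the concentration giving 50% reduction of nuclear CCNK staining, normalized to DMSO and control.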

NC1CCN(c2nc(NCc3nc4ccccc4[nH]3)n3ncc(Br)c3n2)CC1 [Example 256, 2-(4-aminopiperidin-1-yl)-N-[(1H-benzimidazol-2-yl)methyl]-8-bromopyrazolo[1,5-a][1,3,5]triazin-4-amine]
pIC50 (CDK9/CycT1): < 4.70 | pIC50 [1]: 8.00 | DC50 [2]: 3.53 nM | (IC50 CDK12 high ATP) to (Degradation DC50 CDK12) ratio [2]: >5662 | DC50 [3]: 0.326 nM

Fc1cccc2[nH]c(CNc3nc(N4C[C@H]5CC[C@@H](C4)N5)nc4c(C5CC5)cnn34)nc12 [Example 296, 8-cyclopropyl-2-[(1R,5S)-3,8-diazabicyclo[3.2.1]octan-3-yl]-N-[(4-fluoro-1H-benzimidazol-2-yl)methyl]pyrazolo[1,5-a][1,3,5]triazin-4-amine]
pIC50 (CDK9/CycT1): < 4.70 | pIC50 [1]: 8.82 | DC50 [2]: 2.55 nM | (IC50 CDK12 high ATP) to (Degradation DC50 CDK12) ratio [2]: 971 | DC50 [3]: 1.15 nM

CNC1CCN(c2nc(NCc3nc4ccccc4[nH]3)n3ncc(Br)c3n2)CC1 [Example 272, N-[(1H-benzimidazol-2-yl)methyl]-8-bromo-2-[4-(methylamino)piperidin-1-yl]pyrazolo[1,5-a][1,3,5]triazin-4-amine]
pIC50 (CDK9/CycT1): < 4.70 | pIC50 [1]: 7.65 | DC50 [2]: 7.24 nM | (IC50 CDK12 high ATP) to (Degradation DC50 CDK12) ratio [2]: >2761 | DC50 [3]: 1.38 nM

CN(CC(C)(C)O)c1nc(NCc2nc3cc(F)c(Cl)cc3[nH]2)n2ncc(C3CC3)c2n1 [Example 317, 1-[(4-{[(6-chloro-5-fluoro-1H-benzimidazol-2-yl)methyl]amino}-8-cyclopropylpyrazolo[1,5-a][1,3,5]triazin-2-yl)(methyl)amino]-2-methylpropan-2-ol]
pIC50 (CDK9/CycT1): < 4.70 | pIC50 [1]: 8.44 | DC50 [2]: 5.47 nM | (IC50 CDK12 high ATP) to (Degradation DC50 CDK12) ratio [2]: 179 | DC50 [3]: 0.347 nM

Fc1ccc2[nH]c(CNc3nc(N4CCOCC4)nc4c(C5CC5(F)F)cnn34)nc2c1F (centres unmarked) [Example 278, N-[(4,5-difluoro-1H-benzimidazol-2-yl)methyl]-8-(2,2-difluorocyclopropyl)-2-(morpholin-4-yl)pyrazolo[1,5-a][1,3,5]triazin-4-amine]
pIC50 (CDK9/CycT1): < 4.70 | pIC50 [1]: 8.12 | DC50 [2]: 1.18 nM | (IC50 CDK12 high ATP) to (Degradation DC50 CDK12) ratio [2]: 2070 | DC50 [3]: 0.728 nM

Fc1ccc2[nH]c(CNc3nc(N4CCOCC4)nc4c([C@@H]5CC5(F)F)cnn34)nc2c1 (single isomer, unassigned) [Example 315, 8-[(1R or S)-2,2-difluorocyclopropyl]-N-[(5-fluoro-1H-benzimidazol-2-yl)methyl]-2-(morpholin-4-yl)pyrazolo[1,5-a][1,3,5]triazin-4-amine]
pIC50 (CDK9/CycT1): < 4.70 | pIC50 [1]: 7.42 | DC50 [2]: 33.9 nM | (IC50 CDK12 high ATP) to (Degradation DC50 CDK12) ratio [2]: >581 | DC50 [3]: 2.15 nM

Fc1ccc2[nH]c(CNc3nc(N4CCOCC4)nc4c(C5CCCC5)cnn34)nc2c1F [Example 262, 8-cyclopentyl-N-[(4,5-difluoro-1H-benzimidazol-2-yl)methyl]-2-(morpholin-4-yl)pyrazolo[1,5-a][1,3,5]triazin-4-amine]
pIC50 (CDK9/CycT1): < 4.70 | pIC50 [1]: 7.22 | DC50 [2]: 11.4 nM | (IC50 CDK12 high ATP) to (Degradation DC50 CDK12) ratio [2]: >500 | DC50 [3]: 1.94 nM

Brc1cnn2c(NCc3nc4ccccc4[nH]3)nc(N3CCC4(CCN4)CC3)nc12 [Example 291, N-[(1H-benzimidazol-2-yl)methyl]-8-bromo-2-(1,7-diazaspiro[3.5]nonan-7-yl)pyrazolo[1,5-a][1,3,5]triazin-4-amine]
pIC50 (CDK9/CycT1): < 4.70 | pIC50 [1]: 7.73 | DC50 [2]: 19.2 nM | (IC50 CDK12 high ATP) to (Degradation DC50 CDK12) ratio [2]: 554 | DC50 [3]: 10 nM

Fc1cc2nc(CNc3nc(N4CCOCC4)nc4c(C5CC5)cnn34)[nH]c2cc1Cl [Example 307, N-[(6-chloro-5-fluoro-1H-benzimidazol-2-yl)methyl]-8-cyclopropyl-2-(morpholin-4-yl)pyrazolo[1,5-a][1,3,5]triazin-4-amine]
pIC50 (CDK9/CycT1): < 4.70 | pIC50 [1]: 8.34 | DC50 [2]: 8.26 nM | (IC50 CDK12 high ATP) to (Degradation DC50 CDK12) ratio [2]: 190 | DC50 [3]: 0.863 nM

N[C@@H]1[C@@H]2C[C@H]1CN(c1nc(NCc3nc4ccccc4[nH]3)n3ncc(Br)c3n1)C2 [Example 289, 2-[(1R,5S,6s)-6-amino-3-azabicyclo[3.1.1]heptan-3-yl]-N-[(1H-benzimidazol-2-yl)methyl]-8-bromopyrazolo[1,5-a][1,3,5]triazin-4-amine]
pIC50 (CDK9/CycT1): < 4.70 | pIC50 [1]: 8.51 | DC50 [2]: 3.13 nM | (IC50 CDK12 high ATP) to (Degradation DC50 CDK12) ratio [2]: 2240 | DC50 [3]: 1.76 nM

N[C@H]1CCN(c2nc(NCc3nc4ccccc4[nH]3)n3ncc(Br)c3n2)C1 [Example 245, 2-[(3S)-3-aminopyrrolidin-1-yl]-N-[(1H-benzimidazol-2-yl)methyl]-8-bromopyrazolo[1,5-a][1,3,5]triazin-4-amine]
pIC50 (CDK9/CycT1): < 4.70 | pIC50 [1]: 8.51 | DC50 [2]: 1.49 nM | (IC50 CDK12 high ATP) to (Degradation DC50 CDK12) ratio [2]: >10636 | DC50 [3]: 0.627 nM

CC1(N)CCN(c2nc(NCc3nc4ccccc4[nH]3)n3ncc(Br)c3n2)CC1 [Example 290, 2-(4-amino-4-methylpiperidin-1-yl)-N-[(1H-benzimidazol-2-yl)methyl]-8-bromopyrazolo[1,5-a][1,3,5]triazin-4-amine]
pIC50 (CDK9/CycT1): < 4.70 | pIC50 [1]: 7.69 | DC50 [2]: 21.5 nM | (IC50 CDK12 high ATP) to (Degradation DC50 CDK12) ratio [2]: >920 | DC50 [3]: 8.58 nM

Cc1ccnc2[nH]c(CNc3nc(N4CCOCC4)nc4c(Br)cnn34)nc12 [Example 20, 8-bromo-N-[(7-methyl-3H-imidazo[4,5-b]pyridin-2-yl)methyl]-2-(morpholin-4-yl)pyrazolo[1,5-a][1,3,5]triazin-4-amine]
pIC50 (CDK9/CycT1): 5.04 | pIC50 [1]: 7.85 | DC50 [2]: 2.57 nM | (IC50 CDK12 high ATP) to (Degradation DC50 CDK12) ratio [2]: 681 | DC50 [3]: 1.35 nM

Fc1ccc2[nH]c(CNc3nc(N4CCOCC4)nc4c(C5CCC5)cnn34)nc2c1F [Example 264, 8-cyclobutyl-N-[(4,5-difluoro-1H-benzimidazol-2-yl)methyl]-2-(morpholin-4-yl)pyrazolo[1,5-a][1,3,5]triazin-4-amine]
pIC50 (CDK9/CycT1): < 4.70 | pIC50 [1]: 8.06 | DC50 [2]: 3.55 nM | (IC50 CDK12 high ATP) to (Degradation DC50 CDK12) ratio [2]: 627 | DC50 [3]: 1.8 nM

CN[C@@H]1CCN(c2nc(NCc3nc4ccccc4[nH]3)n3ncc(Br)c3n2)C1 [Example 253, N-[(1H-benzimidazol-2-yl)methyl]-8-bromo-2-[(3R)-3-(methylamino)pyrrolidin-1-yl]pyrazolo[1,5-a][1,3,5]triazin-4-amine]
pIC50 (CDK9/CycT1): < 4.70 | pIC50 [1]: 8.16 | DC50 [2]: 0.875 nM | (IC50 CDK12 high ATP) to (Degradation DC50 CDK12) ratio [2]: >22856 | DC50 [3]: 1.82 nM

Fc1ccc2[nH]c(CNc3nc(N4C[C@H]5CC[C@@H](C4)N5)nc4c(C5CC5)cnn34)nc2c1F [Example 294, 8-cyclopropyl-2-[(1R,5S)-3,8-diazabicyclo[3.2.1]octan-3-yl]-N-[(4,5-difluoro-1H-benzimidazol-2-yl)methyl]pyrazolo[1,5-a][1,3,5]triazin-4-amine]
pIC50 (CDK9/CycT1): 4.82 | pIC50 [1]: 8.85 | DC50 [2]: 2.73 nM | (IC50 CDK12 high ATP) to (Degradation DC50 CDK12) ratio [2]: 684 | DC50 [3]: 0.56 nM

Fc1ccc2[nH]c(CNc3nc(N4CC5CCC(C4)N5)nc4c(C(F)(F)F)cnn34)nc2c1F [Example 310, 2-(3,8-diazabicyclo[3.2.1]octan-3-yl)-N-[(4,5-difluoro-1H-benzimidazol-2-yl)methyl]-8-(trifluoromethyl)pyrazolo[1,5-a][1,3,5]triazin-4-amine]
pIC50 (CDK9/CycT1): 5.07 | pIC50 [1]: 8.76 | DC50 [2]: 17.3 nM | (IC50 CDK12 high ATP) to (Degradation DC50 CDK12) ratio [2]: 75 | DC50 [3]: 0.29 nM

OCC1CN(c2nc(NCc3nc4ccccc4[nH]3)n3ncc(Br)c3n2)C1 [Example 304, [1-(4-{[(1H-benzimidazol-2-yl)methyl]amino}-8-bromopyrazolo[1,5-a][1,3,5]triazin-2-yl)azetidin-3-yl]methanol]
pIC50 (CDK9/CycT1): < 4.70 | pIC50 [1]: 7.06 | DC50 [2]: 74.6 nM | (IC50 CDK12 high ATP) to (Degradation DC50 CDK12) ratio [2]: 167 | DC50 [3]: 12.4 nM

COc1ccc2[nH]c(CNc3nc(N4CCOCC4)nc4c(C(F)(F)F)cnn34)nc2c1 [Example 257, N-[(5-methoxy-1H-benzimidazol-2-yl)methyl]-2-(morpholin-4-yl)-8-(trifluoromethyl)pyrazolo[1,5-a][1,3,5]triazin-4-amine]
pIC50 (CDK9/CycT1): < 4.70 | pIC50 [1]: 7.97 | DC50 [2]: 3 nM | (IC50 CDK12 high ATP) to (Degradation DC50 CDK12) ratio [2]: 39 | DC50 [3]: 0.864 nM
